Source: US20160022684A1, “BET INHIBITOR AND BRUTON'S TYROSINE KINASE INHIBITOR COMBINATIONS” (Pharmacyclics LLC, priority 2014, published 2016)

Columns and labels:
[1] = system: OCI-LY3; test: Combined drug treatment cell viability (CellTiter-Glo), ibrutinib with BET inhibitors, OCI-LY3; assay type: cell-based; conditions: OCI-LY-3, JQ1 1 uM, 3 days
Procedure: (§1) The DLBCL cell lines used during the experiments included TMD8, OCI-LY3, OCI-LY10, U-2932 and SU-DHL-2. DLBCL cells at either 1×10^4 cells or 2×10^4 cells were plated onto each well of a 96-W plate (Table 1). […] The 96-W plate was then incubated for 3 days. Cell viability was examined using a CellTiter-Glo assay. A 40 μL of CellTiter-Glo reagent was added directly into each well of the 96-W plate. The plate was then shaken on a Shaker ([…]) at speed 5 for 10-20 min at room temperature. Next, about 100 μL of the mixed medium was transferred to a white, non-transparent, flat bottom 96-W plate for assaying. […] Measurements were taken at room temperature. CellTiter-Glow reagents were thawed prior to use. Cells pre-plated onto a second 96-W plate and incubated at room temperature for 30 minutes were used for calibration purposes. […] CI is a quantitative description of the interaction property of the combination of two drugs.

[2] = system: U-2932; test: Combined drug treatment cell viability (CellTiter-Glo), ibrutinib with BET inhibitors, U-2932; assay type: cell-based; conditions: U2932, JQ1 20 nM, 3 days
Procedure: as §1

[3] = system: SU-DHL-2; test: Combined drug treatment cell viability (CellTiter-Glo), ibrutinib with BET inhibitors, SU-DHL-2; assay type: cell-based; conditions: JQ1 100 nM, 3 days
Procedure: as §1

[4] = system: YAC-1 (target cells); test: NK cell cytotoxicity of splenocytes from treated mice (A20 model); assay type: in vivo; conditions: combination of JQ1 with ibrutinib, splenocytes after 14 days of treatment, co-cultured with YAC-1 for 4 hours
Procedure: To determine the drug effect on NK cell cytotoxicity, splenocytes (effector cells) were harvested from mice after 14 days of treatment. The splenocytes were co-cultured with YAC-1 (target cells) for 4 hours. The percentage of target cell death (PI-positive cells) was analyzed by flow cytometry.

[5] = system: TMD8; test: Combined drug treatment cell viability (CellTiter-Glo), ibrutinib with BET inhibitors, TMD8; assay type: cell-based; conditions: JQ1 20 nM, 3 days
Procedure: as §1

[6] = system: OCI-LY10; test: Combined drug treatment cell viability (CellTiter-Glo), ibrutinib with BET inhibitors, OCI-LY10; assay type: cell-based; conditions: OCI-LY-10, JQ1 1 uM, 3 days
Procedure: as §1

[7] = ibrutinib 0 nM (BET inhibitor alone): I-BET151 5 uM, OTX015 1 uM
[8] = ibrutinib 0.0256 nM with I-BET151 5 uM, OTX015 1 uM or medium alone (row)
[9] = ibrutinib 0.64 nM with I-BET151 5 uM, OTX015 1 uM or medium alone (row)
[10] = ibrutinib 3.2 nM with I-BET151 5 uM, OTX015 1 uM or medium alone (row)
[11] = ibrutinib 16 nM with I-BET151 5 uM, OTX015 1 uM or medium alone (row)
[12] = ibrutinib 80 nM with I-BET151 5 uM, OTX015 1 uM or medium alone (row)
[13] = ibrutinib 400 nM with I-BET151 5 uM, OTX015 1 uM or medium alone (row)
[14] = ibrutinib 2000 nM with I-BET151 5 uM, OTX015 1 uM or medium alone (row)
[15] = ibrutinib 10000 nM with I-BET151 5 uM, OTX015 1 uM or medium alone (row)
[16] = ibrutinib […] with I-BET151 5 uM, OTX015 1 uM or medium alone (row)

Cc1sc2c(c1C)C(c1ccc(Cl)cc1)=N[C@@H](CC(=O)OC(C)(C)C)c1nnc(C)n1-2 [JQ1]
luminescent signals [1, 7]: 20530.28 | luminescent signals [1, 8]: 21973.49 | luminescent signals [1, 9]: 23078.2 | luminescent signals [1, 10]: 22419.57 | luminescent signals [1, 11]: 21821.3 | luminescent signals [1, 12]: 21944.63 | luminescent signals [1, 13]: 22621.62 | luminescent signals [1, 14]: 24841.54 | luminescent signals [1, 15]: 21414.57 | luminescent signals [1, 16]: 22582.26 | luminescent signals ([2]; ibrutinib 0 nM (BET inhibitor alone): I-BET151 200 nM, OTX015 50 nM (Table 2)): 55050.2 | luminescent signals ([2]; ibrutinib 0.0256 nM with I-BET151 200 nM, OTX015 50 nM (Table 2) or medium alone (row)): 52636.54 | luminescent signals ([2]; ibrutinib 0.64 nM with I-BET151 200 nM, OTX015 50 nM (Table 2) or medium alone (row)): 46610.32 | luminescent signals ([2]; ibrutinib 3.2 nM with I-BET151 200 nM, OTX015 50 nM (Table 2) or medium alone (row)): 47334.95 | luminescent signals ([2]; ibrutinib 16 nM with I-BET151 200 nM, OTX015 50 nM (Table 2) or medium alone (row)): 46417.97 | luminescent signals ([2]; ibrutinib 80 nM with I-BET151 200 nM, OTX015 50 nM (Table 2) or medium alone (row)): 49232.14 | luminescent signals ([2]; ibrutinib 400 nM with I-BET151 200 nM, OTX015 50 nM (Table 2) or medium alone (row)): 44892.31 | luminescent signals ([2]; ibrutinib 2000 nM with I-BET151 200 nM, OTX015 50 nM (Table 2) or medium alone (row)): 44099.18 | luminescent signals ([2]; ibrutinib 10000 nM with I-BET151 200 nM, OTX015 50 nM (Table 2) or medium alone (row)): 33551.32 | luminescent signals ([2]; ibrutinib […] with I-BET151 200 nM, OTX015 50 nM (Table 2) or medium alone (row)): 54454.69 | luminescent signals ([3]; ibrutinib 0 nM (BET inhibitor alone): I-BET151 2 uM, OTX015 1 uM (Table 2)): 17739.9 | luminescent signals ([3]; ibrutinib 0.0256 nM with I-BET151 2 uM, OTX015 1 uM (Table 2) or medium alone (row)): 22662.83 | luminescent signals ([3]; ibrutinib 0.64 nM with I-BET151 2 uM, OTX015 1 uM (Table 2) or medium alone (row)): 19308.19 | luminescent signals ([3]; ibrutinib 3.2 nM with I-BET151 2 uM, OTX015 1 uM (Table 2) or medium alone (row)): 25589.27 | luminescent signals ([3]; ibrutinib 16 nM with I-BET151 2 uM, OTX015 1 uM (Table 2) or medium alone (row)): 20485.07 | luminescent signals ([3]; ibrutinib 80 nM with I-BET151 2 uM, OTX015 1 uM (Table 2) or medium alone (row)): 19823.08 | luminescent signals ([3]; ibrutinib 400 nM with I-BET151 2 uM, OTX015 1 uM (Table 2) or medium alone (row)): 23679.47 | luminescent signals ([3]; ibrutinib 2000 nM with I-BET151 2 uM, OTX015 1 uM (Table 2) or medium alone (row)): 29411.5 | luminescent signals ([3]; ibrutinib 10000 nM with I-BET151 2 uM, OTX015 1 uM (Table 2) or medium alone (row)): 3706.648 | luminescent signals ([3]; ibrutinib […] with I-BET151 2 uM, OTX015 1 uM (Table 2) or medium alone (row)): 19174.22 | NK cytotoxicity (percentage of target cell death, PI-positive cells) [4]: enhanced NK cytotoxicity | luminescent signals ([5]; ibrutinib 0 nM (BET inhibitor alone): I-BET151 200 nM, OTX015 100 nM): 59694.27 | luminescent signals ([5]; ibrutinib 0.0256 nM with I-BET151 200 nM, OTX015 100 nM or medium alone (row)): 18249.87 | luminescent signals ([5]; ibrutinib 0.64 nM with I-BET151 200 nM, OTX015 100 nM or medium alone (row)): 16842.39 | luminescent signals ([5]; ibrutinib 3.2 nM with I-BET151 200 nM, OTX015 100 nM or medium alone (row)): 16468.11 | luminescent signals ([5]; ibrutinib 16 nM with I-BET151 200 nM, OTX015 100 nM or medium alone (row)): 16312.6 | luminescent signals ([5]; ibrutinib 80 nM with I-BET151 200 nM, OTX015 100 nM or medium alone (row)): 15297.84 | luminescent signals ([5]; ibrutinib 400 nM with I-BET151 200 nM, OTX015 100 nM or medium alone (row)): 15282.03 | luminescent signals ([5]; ibrutinib 2000 nM with I-BET151 200 nM, OTX015 100 nM or medium alone (row)): 15571.96 | luminescent signals ([5]; ibrutinib 10000 nM with I-BET151 200 nM, OTX015 100 nM or medium alone (row)): 9818.137 | luminescent signals ([5]; ibrutinib […] with I-BET151 200 nM, OTX015 100 nM or medium alone (row)): 18911.45 | luminescent signals [6, 7]: 41458.59 | luminescent signals [6, 8]: 45492.43 | luminescent signals [6, 9]: 52166.4 | luminescent signals [6, 10]: 39783.52 | luminescent signals [6, 11]: 26164.72 | luminescent signals [6, 12]: 24844.65 | luminescent signals [6, 13]: 24502.8 | luminescent signals [6, 14]: 24579.06 | luminescent signals [6, 15]: 25346.91 | luminescent signals [6, 16]: 47932.71
